This is an account of results in patent US3989845A, “Anesthetic chlorocyclopropanes” (priority 1974, dated 1976).

Some results are limits rather than exact numbers.

The subject of this data set is Mice. Nature of the data set: Inhalation anesthesia test in mice, 10 minutes in a rotating drum (pinch, corneal and righting reflex): AC50, LC50 and anesthetic index. Type of data set: in vivo. The conditions noted are these: for AI (anesthetic index, LC50/AC50): calculated from LC50 and AC50, 10 min; for AC50 (minimum concentration required to anesthetize 50% of the mice) / LC50 (minimum concentration required to kill 50% of the mice): inhalation, 10 minutes in rotating drum, at least four graded doses, where two figures are given, the actual value lies between them. Here is the method:
Mice were exposed to the anesthetic for a period of 10 minutes in a rotating drum. Observations were then made of the pinch reflex, the corneal reflex and the return of the righting reflex. At least four graded doses were employed to determine the minimum concentration required to anesthetize 50% of the mice used (AC50) and the minimum concentration required to kill 50% of the mice (LC50). The anesthetic index (AI) was then calculated from these minimum concentrations.

`CC1(F)C(F)(F)C1(Cl)Cl` (stereo not drawn) [Example 8, 1,1-diCl-2-CH3-triF-]: the “AI (anesthetic index, LC50/AC50)” value is recorded as 4-6; the “AC50 (minimum concentration required to anesthetize 50% of the mice)” value is reported as under 1 % volume; the “LC50 (minimum concentration required to kill 50% of the mice)” value is reported as 4-6 % volume.
For `CC1(Cl)CC1(F)Cl` (stereo not drawn) [Example 9, 1,2-Dichloro-1-fluoro-2-methylcyclopropane], in that order: over 2, under 1 % volume and 2-4 % volume.
For `FC1(F)C(F)(Cl)C1(Cl)Cl` (stereo not drawn) [Example 10, 1,1,2-triCl-triF-], in that order: over 3, 1.5 % volume and 2-10 % volume.
On to `FC(F)(F)C1(F)C(F)(F)C1(Cl)Cl` (stereo not drawn) [Example 11, 1,1-diCl-2-CF3-triF-], for which the “AI (anesthetic index, LC50/AC50)” value was ~ 2; the “AC50 (minimum concentration required to anesthetize 50% of the mice)” value is reported as 4 % volume; the “LC50 (minimum concentration required to kill 50% of the mice)” value is reported as over 10 % volume.
For `FC1(F)C(F)(Cl)C1(F)Cl` (stereo not drawn) [Example 12, 1,2-Dichlorotetrafluorocyclopropane], in that order: ~ 2, 6-10 % volume and under 20 % volume.
On the same counts, the results for `FC1(F)C(Cl)(Cl)C1(Cl)Cl` [Example 13, 1,1,2,2-tetraCl-diF-] are ~ 4, 0.25 % volume and 1 % volume.
For `FC1C(F)(F)C1(Cl)Cl` (stereo not drawn) [Example 14, 1,1-diCl-2,3,3-triF-], in that order: 2-3, under 2 % volume and 4-6 % volume.
